Each structure is given as a SMILES string.

Experimental findings from US20080318982A1, “Pharmaceutical Combination for the Treatment of Luts” (Pfizer, Inc., priority 2005, published 2008) are described below.

This assay relates to Anaesthetized Guinea-pig. The experiment in a line: Filling cystometry in the anaesthetized guinea-pig (effects on lower urinary tract function). The settings on record: for % Change in Micturition Pressure / % Change in Threshold Volume: infused continuously for 60 min, vs baseline. The class given is in vivo. The protocol:
Animals: Female Hartley guinea pigs (body weight 300-350 grams).
Surgical procedure: The animals are anaesthetized with urethane (1.5 g/kg intraperitoneally) given as a divided dose of 80% initially and 20% 15 min later. Body temperature is maintained at 37±2° C. throughout the experiment. The bladder is exposed through a lower abdominal incision and a polyethylene catheter with a small cuff is inserted in the bladder dome and secured with a purse-string suture. The ureters are then ligatured. The bladder is replaced under the abdominal wall and the catheter is connected via a T-tube to a pressure transducer in order to measure intravesical pressure. The trachea is cannulated. The jugular vein is cannulated to allow administration of test compounds and the femoral artery is cannulated in order to collect plasma sample.
Cystometry: A series of filling cystometry cycles are performed throughout the experimental measurement period to establish baseline parameters and determine drug effect. Before each cystometry cycle, the bladder is emptied manually. Saline at room temperature is then infused continuously into the bladder via the catheter at a flow rate of 600 μL/min until a micturition occurs. The following micturition parameters are measured during each cystometry cycle: Micturition Pressure (MP, the pressure in the bladder during voiding) and Threshold Volume (ThV, volume at which micturition occurs, mL).
Evaluation of drug effect: After the determination of baseline parameters (mean of 3 micturition cycles), test substance or vehicle is administered continuously for 60 minutes. At the end of the drug infusion period, the effect of drug on cystometry parameters is determined by taking an average of the measurements made in two micturition cycles. For combination studies, the respective doses of the test compounds are infused together over a 60 min period following the measurement of baseline parameters.

For `CCCOc1ccc(S(=O)(=O)N2CCN(CC)CC2)cc1-c1nc2c(CC)nn(Cc3ccccn3)c2c(=O)[nH]1` [Compound A, 3-ethyl-5-[5-(4-ethylpiperazin-1-ylsulphonyl)-2-n-propoxyphenyl]-1-(pyridin-2-yl)methyl-1,6-dihydro-7H-pyrazolo[4,3-d]pyrimidin-7-one], for the setting “Compound A 0.11 mg/kg, 0.32 mg/kg”, the “effect on micturition pressure (in words)” value was “small reduction”. For the setting “Compound A 0.11 mg/kg”, the “% Change in Micturition Pressure” value was −6.7% and the “% Change in Threshold Volume” value is reported as −2.7%. Moreover, for the setting “Compound A 0.32 mg/kg”, the “% Change in Micturition Pressure” value is −6% and the “% Change in Threshold Volume” value is given as “+11.4%”.
On to `CCN(CC)CC#CCOC(=O)C(O)(c1ccccc1)C1CCCCC1` (centres unmarked) [Oxybutynin, oxybutynin, reference compound], for which, where the note is “Oxybutynin 3.18 mg/kg”, the “% Change in Micturition Pressure” value is recorded as “+3.2%” and the “% Change in Threshold Volume” value is “+18.9%”. For the setting “oxybutynin 3.18 mg/kg”, the “effect on micturition pressure (in words)” value is given as “small increase”.
